{"source": "patent US6579886B2", "about": "“Selective iglur5 receptor antagonists” (Eli Lilly and Company, priority 1999, dated 2003)", "key": {"[1]": {"target": "T1, iGluR5 receptor (relative to iGluR2 AMPA receptor subtype) (Homo sapiens, UniProt P39086)", "T1 construct": "expressed in transfected cells; host or cells: HEK293 cells, stably transfected", "T1 sequence (P39086 31-918)": "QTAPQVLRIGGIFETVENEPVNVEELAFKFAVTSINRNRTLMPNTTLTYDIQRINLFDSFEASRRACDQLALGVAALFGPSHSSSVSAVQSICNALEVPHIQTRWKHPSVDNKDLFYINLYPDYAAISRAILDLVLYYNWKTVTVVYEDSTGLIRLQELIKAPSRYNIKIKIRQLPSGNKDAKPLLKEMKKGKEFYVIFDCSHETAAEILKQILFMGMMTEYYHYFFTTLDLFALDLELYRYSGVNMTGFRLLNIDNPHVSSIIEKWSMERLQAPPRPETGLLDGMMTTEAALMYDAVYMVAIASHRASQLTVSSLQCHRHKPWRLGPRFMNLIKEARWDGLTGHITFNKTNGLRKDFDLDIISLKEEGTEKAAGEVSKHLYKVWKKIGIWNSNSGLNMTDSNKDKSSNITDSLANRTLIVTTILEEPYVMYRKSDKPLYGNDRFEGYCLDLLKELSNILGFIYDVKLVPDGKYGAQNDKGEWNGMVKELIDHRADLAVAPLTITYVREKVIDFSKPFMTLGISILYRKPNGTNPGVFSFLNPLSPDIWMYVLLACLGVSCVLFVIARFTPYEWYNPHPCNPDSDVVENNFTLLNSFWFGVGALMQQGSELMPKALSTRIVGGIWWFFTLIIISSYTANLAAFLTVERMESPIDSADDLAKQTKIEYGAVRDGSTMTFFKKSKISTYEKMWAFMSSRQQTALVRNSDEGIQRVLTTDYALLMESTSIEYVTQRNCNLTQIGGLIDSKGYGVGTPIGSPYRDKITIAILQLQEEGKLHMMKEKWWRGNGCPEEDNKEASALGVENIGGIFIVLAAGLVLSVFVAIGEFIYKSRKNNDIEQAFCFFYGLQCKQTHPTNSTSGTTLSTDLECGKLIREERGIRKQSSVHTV", "experiment": "iGluR5 antagonist binding affinity profile: displacement of 3[H] kainate (iGluR5) versus 3[H] AMPA (iGluR2) in stably transfected HEK293 cells", "conditions": "HEK293 cells stably transfected with human iGluR receptors; 3[H] kainate vs 3[H] AMPA displacement", "description": "To establish that the iGluR5 receptor subtype is mediating neurogenic protein extravasation, a functional characteristic of migraine, the binding affinity of the compounds of formula I to the iGluR5 receptor is first measured using standard methods. For example, the activity of compounds acting at the iGluR5 receptor can be determined by radiolabelled ligand binding studies at the cloned and expressed human iGluR5 receptor (Korczak et al., 1994, Recept. Channels 3; 41-49), and by whole cell voltage clamp electrophysiological recordings of currents in acutely isolated rat dorsal root ganglion neurons (Bleakman et al., 1996, Mol. Pharmacol. 49; 581-585). The selectivity of compounds acting at the iGluR5 receptor subtype can then be determined by comparing antagonist activity at the iGluR5 receptor with antagonist activity at other AMPA and kainate receptors. […] AMPA by increasing concentrations of antagonist is measured on iGluR1, iGluR2, iGluR3, and iGluR4 expressing cells, while displacement of ^3[H] kainate (KA) is measured on iGluR5, iGluR6, iGluR7, and KA2-expressing cells. As an indicia of selectivity, the ratio of binding affinity to the iGluR2 AMPA receptor subtype, versus the binding affinity to iGluR5 kainate receptor subtype, is also determined."}, "[2]": {"tested_on": "neurogenic dural protein extravasation", "experiment": "Animal model of dural protein extravasation (trigeminal ganglion stimulation, Evans Blue)", "type": "in vivo, rats or guinea pigs", "conditions": "given orally; approximated from dose-response curve", "description": "Methods, 81(1,2) 19-24 (1998). For example, the following animal model is employed to determine the ability of each of the compounds of formula I to inhibit protein extravasation, an exemplary functional assay of the neuronal mechanism of migraine.\nHarlan Sprague-Dawley rats (225-325 g) or guinea pigs from Charles River Laboratories (225-325 g) are anesthetized with sodium pentobarbital intraperitoneally (65 mg/kg or 45 mg/kg respectively) and placed in a stereotaxic frame (David Kopf Instruments) with the incisor bar set at −3.5 mm for rats or −4.0 mm for guinea pigs. Following a midline sagital scalp incision, two pairs of bilateral holes are drilled through the skull (6 mm posterially, 2.0 and 4.0 mm laterally in rats; 4 mm posteriorly and 3.2 and 5.2 mm laterally in guinea pigs, all coordinates referenced to bregma). […]\nA fluorescence microscope (Zeiss) equipped with a grating monchromator and a spectrophotometer is used to quantify the amount of Evans Blue dye in each sample. An excitation wavelength of approximately 535 nm is utilized and the emission intensity at 600 nm was determined. […] This facilitates the computer-controlled movement of the stage with fluorescence measurements at 25 points ([…]) on each dural sample. The mean and standard deviation of the measurements are determined by the computer. […]"}}, "note": "Where a name gives a salt, the structure may show the parent alone."}
{"smiles": "O=C(O)[C@@H]1C[C@H]2C[C@@H](Cc3ccccc3-c3nnn[nH]3)CC[C@H]2CN1", "values": [{"measurement": "selectivity: ratio of binding affinity for the iGluR5 receptor over the iGluR2 receptor", "setting": "[1]", "value": 5, "unit": "fold"}]}
{"smiles": "CCOC(=O)c1ncn(C[C@H]2CC[C@H]3CN[C@H](C(=O)OCC)C[C@H]3C2)c1C(=O)OCC", "note": "(as salt: hydrochloride) [Example 11, [3S 4aR,6S,8aR]-Ethyl 6-{[4,5-Bis(ethoxycarbonyl)-1H-imidazol-1-yl]methyl}1 2,3,4,4a,5,6,7,8,8a-decahydroisoquinoline-3-carboxylate Dihydrochloride]", "values": [{"measurement": "melting point", "value": "99 to 101", "unit": "°C"}]}
{"smiles": "CCOC(=O)c1cn(C[C@H]2CC[C@H]3CN[C@H](C(=O)OCC)C[C@H]3C2)cn1", "note": "[Example 3, [3S,4aR,6S,8aR]-Ethyl-6-((4-ethoxycarbonyl-1H-imidazol-1-yl)methyl)-1,2,3,4,4a,5,6,7,8,8a-decahydroisoquinoline-3-carboxylate]", "values": [{"measurement": "ID100 (dose that inhibits the extravasation by 100%)", "setting": "[2]", "value": 0.3, "unit": "ng/kg"}]}
